Laboratory results published in publication PMC10239048, “Synthesis and antioxidant, antimicrobial, and antiviral activity of some pyrazole-based heterocycles using a 2(3H)-furanone derivative” (Journal of the Iranian Chemical Society, 2023).
In brackets after ≈: the same amount, converted by molar mass.

Assays:
[1] = Total antioxidant capacity (TAC), phosphomolybdenum method; conditions: for Total antioxidant capacity: 500 µg/ml in methanol, 95 °C 90 min, 695 nm, means ± S.D., n = 3
[2] = test system: avian influenza HPAI-H5N1 (AIV); set-up: species or system avian influenza virus HPAI-H5N1; conditions: in vivo
[3] = test system: avian influenza HPAI-H5N1 (AIV); set-up: species or system avian influenza virus HPAI-H5N1; conditions: in vivo; remark: listed apart in the source
[4] = test system: Haemophilus (Gram –ve); test: Agar/disk diffusion inhibition zone, Haemophilus; type: cell-based; conditions: diffusion method
[5] = test system: Staphylococcus aureus; test: Agar/disk diffusion inhibition zone, Staphylococcus aureus; type: cell-based; conditions: diffusion method
[6] = test system: Candida albicans; test: Agar diffusion antifungal activity, Candida albicans; type: cell-based; conditions: diffusion method
[7] = test system: Haemophilus (Gram –ve); test: MIC measurement by serial dilution, Haemophilus; type: cell-based; conditions: read-out: MIC Haemophilus (Gram –ve)
[8] = test system: Staphylococcus aureus; test: MIC measurement by serial dilution, Staphylococcus aureus; type: cell-based; conditions: 37 °C, 24–72 h, read-out: MIC Staph (Gram + ve)
[9] = test system: SPF chicks; test: Immune-boosting properties in vaccinated SPF chicks (humeral response); type: in vivo, chicken; conditions: for Humeral response of vaccinated groups which received each tested compound separately: SPF chicks, vaccine-only group 7 log2; for Immune-boosting properties (in words): antibody titer in serum of vaccinated chicks
[10] = test system: embryonated chicken SPF eggs; conditions: in vivo

SMILES | Antioxidant activity (in words) [1] | Total antioxidant capacity [1] | TI [2] | Antiviral activity against avian influenza virus (in words) [3] | Virus titer with compound [3] | Inhibition diameter Haemophilus (Gram –ve) [4] | Inhibition diameter Staph (Gram + ve) [5] | Candida albicans (diameter of inhibition zone) [6] | MIC [7] | MIC [8] | Humeral response of vaccinated groups which received each tested compound separately [9] | Immune-boosting properties (in words) [9] | CC50 [10]
Cc1ccc(C2=CC(=Cc3c(C)nn(-c4ccccc4)c3Cl)C(=O)O2)cc1 [Compound 3, 3-((5-Chloro-3-methyl-1-phenyl-1H-pyrazol-4-yl)methylene)-5-(p-tolyl)furan-2(3H)-one] | Moderate antioxidant activity | 156.33 ± 4.04 mg AAE/g dry compound | 96.77 | remarked antiviral activity | 10^1 | 22 mm | 23 mm | 24 mm | 1 µg/mL (≈ 2.65 µM) | 2 µg/mL | 7.3 log2 | special immune-boosting properties | 300 > µl/ egg
Cc1ccc(C2=CC(=Cc3c(C)nn(-c4ccccc4)c3Cl)C(=O)N2)cc1 [Compound 4, 3-((5-Chloro-3-methyl-1-phenyl-1H-pyrazol-4-yl)methylene)-5-(p-tolyl)-1,3-dihydro-2H-pyrrol-2-one] | – | 278.56 ± 4.61 mg AAE/g dry compound | 83.3 | remarked antiviral activity | 10^1 | 22 mm | 25 mm | 25 mm | 6 µg/mL (≈ 16 µM) | 5 µg/mL | 7.5 log2 | special immune-boosting properties | 500 > µl/ egg
Cc1ccc(C(=O)CC(=Cc2c(C)nn(-c3ccccc3)c2Cl)C(=O)NCc2ccccc2)cc1 [Compound 5, N-Benzyl-2-((5-chloro-3-methyl-1-phenyl-1H-pyrazol-4-yl)methylene)-4-oxo-4-(p-tolyl)butanamide] | – | 221.14 ± 4.63 mg AAE/g dry compound | 96.77 | remarked antiviral activity | 10^1 | 23 mm | 24 mm | 22 mm | 3 µg/mL (≈ 6.2 µM) | 3 µg/mL | 7.4 log2 | special immune-boosting properties | 300 > µl/ egg
Cc1ccc(C(=O)CC(=Cc2c(C)nn(-c3ccccc3)c2Cl)C(=O)NCC(C)C)cc1 [Compound 6, 2-((5-Chloro-3-methyl-1-phenyl-1H-pyrazol-4-yl)methylene)-N-isobutyl-4-oxo-4-(p-tolyl)butanamide] | – | 248.67 ± 4.11 mg AAE/g dry compound | 83.3 | remarked antiviral activity | 10^1 | 25 mm | 22 mm | 20 mm | 5 µg/mL (≈ 11.1 µM) | 4 µg/mL | 7.4 log2 | special immune-boosting properties | 500 > µl/ egg
Cc1ccc(C(=O)CC(=Cc2c(C)nn(-c3ccccc3)c2Cl)C(=O)NN)cc1 [Compound 8, 2-((5-Chloro-3-methyl-1-phenyl-1H-pyrazol-4-yl)methylene)-4-oxo-4-(p-tolyl)butanehydrazide] | Moderate antioxidant activity | 145.0 ± 1.73 mg AAE/g dry compound | 55.5 | little antiviral activity | – | 4 mm | 8 mm | 8 mm | 12 µg/mL (≈ 29.3 µM) | 13 µg/mL | 6.6 log2 | – | 500 > µl/ egg
